Among the data in the Kinase Knowledgebase extract (Sharma et al. 2016) are Ki and inhibition values, retold here.

The first experiment concerns the target CDK2 (human) (UniProt P24941). Kind of experiment: Enzyme Assay.
Conditions: not given
Compound `CN(CCN)c1ccc(S(=O)(=O)N2CCC(Nc3nc(N)c(C(=O)c4c(F)cccc4F)s3)CC2)cn1` showed a Ki of 4.9 nM. That is a single-digit nanomolar value. As to `Nc1nc(NC2CN(C(=O)c3ccc([N+](=O)[O-])cc3)C2)sc1C(=O)c1c(F)cccc1F`, the Ki was 360 nM.

The experiment is the same for the next values; noted with them: concentration not given here.
In the case of `Nc1nc(NC2CCN(C(=O)c3ccc(-n4cccc4)cc3)CC2)sc1C(=O)c1c(F)cccc1F`, the inhibition was 69%. On to `Nc1nc(NC2CCN(C(=O)C3CCCO3)CC2)sc1C(=O)c1c(F)cccc1F` (stereo not given), for which the inhibition came out at 27%. Same read-out and setting: to `CC(=O)Nc1cccc(C(=O)N2CCC(Nc3nc(N)c(C(=O)c4c(F)cccc4F)s3)CC2)c1` belongs 69%; to `CCCCOCC(=O)N1CCC(Nc2nc(N)c(C(=O)c3c(F)cccc3F)s2)CC1`, 79%; to `CC[C@H](C(=O)N1CCC(Nc2nc(N)c(C(=O)c3c(F)cccc3F)s2)CC1)c1ccccc1`, 42%. The same measure, in the same setting: to `Nc1nc(NC2CCN(C(=O)OCc3ccccc3)CC2)sc1C(=O)c1c(F)cccc1F` belongs -32%. Turning to `Nc1nc(NC2CCN(S(=O)(=O)c3cccc4cccnc34)CC2)sc1C(=O)c1c(F)cccc1F`, the inhibition was -32%. Same read-out and setting: then `CC/C=C\CC(=O)N1CCC(Nc2nc(N)c(C(=O)c3c(F)cccc3F)s2)CC1`, with 85%; and `Nc1nc(NC2CCN(C(=O)CCC(=O)c3ccc(F)cc3)CC2)sc1C(=O)c1c(F)cccc1F`, with 7%.

Regarding `COc1ncccc1C(=O)N1CCC(Nc2nc(N)c(C(=O)c3c(F)cccc3F)s2)CC1`, the inhibition was 40%.

Regarding `CCCC[C@H]1CC[C@H](C(=O)N2CCC(Nc3nc(N)c(C(=O)c4c(F)cccc4F)s3)CC2)CC1`, the inhibition is 45%. Turning to `Nc1nc(NC2CCN(C(=O)C(CO)c3ccccc3)CC2)sc1C(=O)c1c(F)cccc1F` (stereo not given), the inhibition amounted to 57%. For `Nc1cccc(CC(=O)N2CCC(Nc3nc(N)c(C(=O)c4c(F)cccc4F)s3)CC2)c1`, the inhibition was 61%. The same measure, in the same setting: then `C#CCCC(=O)N1CCC(Nc2nc(N)c(C(=O)c3c(F)cccc3F)s2)CC1`, with 52%. The same measure, in the same setting: to `CC(O)(C(=O)N1CCC(Nc2nc(N)c(C(=O)c3c(F)cccc3F)s2)CC1)c1ccccc1` (stereo not given) belongs 49%. As to `Cc1cccc(/C=C/C(=O)N2CCC(Nc3nc(N)c(C(=O)c4c(F)cccc4F)s3)CC2)c1`, the inhibition came to 50%. Same read-out and setting: to `CC1(C)C2CC[C@@]1(CS(=O)(=O)N1CCC(Nc3nc(N)c(C(=O)c4c(F)cccc4F)s3)CC1)C(=O)C2` belongs -34%; to `Nc1nc(NC2CCN(C(=O)CCCc3cccs3)CC2)sc1C(=O)c1c(F)cccc1F`, 65%. Still for that read-out and setting: to `CCSCC(=O)N1CCC(Nc2nc(N)c(C(=O)c3c(F)cccc3F)s2)CC1` belongs 63%; to `Nc1nc(NC2CCN(C(=O)[C@@H](O)c3ccccc3)CC2)sc1C(=O)c1c(F)cccc1F`, 61%; to `Nc1nc(NC2CCN(C(=O)CCN3CCCCC3)CC2)sc1C(=O)c1c(F)cccc1F`, 15%. As to `Nc1nc(NC2CCN(C(=O)c3ccc(F)c(F)c3)CC2)sc1C(=O)c1c(F)cccc1F`, the inhibition amounted to 56%. As to `Nc1nc(NC2CCN(C(=O)c3cc4cc(F)ccc4[nH]3)CC2)sc1C(=O)c1c(F)cccc1F`, the inhibition was found to be 36%. Take `Cc1ccccc1C(=O)N1CCC(Nc2nc(N)c(C(=O)c3c(F)cccc3F)s2)CC1`: the inhibition is -11%.

As for `Nc1nc(NC2CCN(C(=O)CCO)CC2)sc1C(=O)c1c(F)cccc1F`, the inhibition came to 39%. The same measure, in the same setting: then `Cc1c(C(=O)N2CCC(Nc3nc(N)c(C(=O)c4c(F)cccc4F)s3)CC2)oc2ccccc12`, with 38%; and `Cc1cc(C(=O)N2CCC(Nc3nc(N)c(C(=O)c4c(F)cccc4F)s3)CC2)ccc1Cl`, with 51%; and `C[C@H](O)C(=O)N1CCC(Nc2nc(N)c(C(=O)c3c(F)cccc3F)s2)CC1`, with 67%.

Regarding `CC(C)(C)c1ccc(CC(=O)N2CCC(Nc3nc(N)c(C(=O)c4c(F)cccc4F)s3)CC2)cc1`, the inhibition came out at 55%. Consider `Nc1nc(NC2CCN(C(=O)C(O)c3c(F)cccc3F)CC2)sc1C(=O)c1c(F)cccc1F` (stereo not given), for which the inhibition is 54%. As to `Nc1nc(NC2CCN(C(=O)[C@@H](O)Cc3ccccc3)CC2)sc1C(=O)c1c(F)cccc1F`, the inhibition worked out at 61%.

On to `Nc1nc(NC2CCN(C(=O)c3ccc(CO)cc3)CC2)sc1C(=O)c1c(F)cccc1F`, for which the inhibition was found to be 47%. Consider `COc1ccc(C(O)C(=O)N2CCC(Nc3nc(N)c(C(=O)c4c(F)cccc4F)s3)CC2)cc1O` (stereo not given), for which the inhibition worked out at 58%. Regarding `CCC[C@H]1CC[C@H](C(=O)N2CCC(Nc3nc(N)c(C(=O)c4c(F)cccc4F)s3)CC2)CC1`, the inhibition worked out at 42%. On to `COc1cccc2cc(C(=O)N3CCC(Nc4nc(N)c(C(=O)c5c(F)cccc5F)s4)CC3)oc12`, for which the inhibition came to 77%. Take `Nc1nc(NC2CCN(C(=O)c3ccc4[nH]cnc4c3)CC2)sc1C(=O)c1c(F)cccc1F`: the inhibition is 72%. On to `Nc1nc(NC2CCN(C(=O)C(O)c3ccccc3)CC2)sc1C(=O)c1c(F)cccc1F` (stereo not given), for which the inhibition worked out at 75%. On to `CCOC(=O)CCCC(=O)N1CCC(Nc2nc(N)c(C(=O)c3c(F)cccc3F)s2)CC1`, for which the inhibition is -6%. On to `Nc1nc(NC2CCN(C(=O)C(O)c3cc(F)cc(F)c3)CC2)sc1C(=O)c1c(F)cccc1F` (stereo not given), for which the inhibition amounted to 52%. As to `CC(O)CC(=O)N1CCC(Nc2nc(N)c(C(=O)c3c(F)cccc3F)s2)CC1` (stereo not given), the inhibition came out at 38%. As for `Cc1cc(Cl)ccc1C(=O)N1CCC(Nc2nc(N)c(C(=O)c3c(F)cccc3F)s2)CC1`, the inhibition was determined as 45%.

Turning to `Nc1nc(NC2CCN(C(=O)c3ccccn3)CC2)sc1C(=O)c1c(F)cccc1F`, the inhibition turned out to be 67%. For `CC(C)Oc1ccc(C(=O)N2CCC(Nc3nc(N)c(C(=O)c4c(F)cccc4F)s3)CC2)cc1`, the inhibition is 19%. As for `Nc1nc(NC2CCN(C(=O)/C=C/c3ccccc3O)CC2)sc1C(=O)c1c(F)cccc1F`, the inhibition was determined as 74%. On the same count and under the same terms, then `Nc1nc(NC2CCN(C(=O)/C=C/C=C/c3ccccc3)CC2)sc1C(=O)c1c(F)cccc1F`, with 58%; and `CCCN(CCC)[C@@H](C)C(=O)N1CCC(Nc2nc(N)c(C(=O)c3c(F)cccc3F)s2)CC1`, with 6%; and `Nc1nc(NC2CCN(C(=O)c3ccnc4ccccc34)CC2)sc1C(=O)c1c(F)cccc1F`, with 10%.

For `CC(SCc1ccccc1)C(=O)N1CCC(Nc2nc(N)c(C(=O)c3c(F)cccc3F)s2)CC1` (stereo not given), the inhibition is 50%. As to `COCCOC(=O)N1CCC(Nc2nc(N)c(C(=O)c3c(F)cccc3F)s2)CC1`, the inhibition is -11%. With `CC(O)(CC(=O)N1CCC(Nc2nc(N)c(C(=O)c3c(F)cccc3F)s2)CC1)C(F)(F)F` (stereo not given), the inhibition was determined as 64%. On the same count and under the same terms, then `Nc1nc(NC2CCN(C(=O)/C=C/c3ccc(O)cc3)CC2)sc1C(=O)c1c(F)cccc1F`, with 66%; and `CCOc1ccc(/C=C/C(=O)N2CCC(Nc3nc(N)c(C(=O)c4c(F)cccc4F)s3)CC2)cc1`, with 34%. In the case of `COc1cc(C)ccc1C(=O)N1CCC(Nc2nc(N)c(C(=O)c3c(F)cccc3F)s2)CC1`, the inhibition stood at 59%. Consider `CC1CCCCC1C(=O)N1CCC(Nc2nc(N)c(C(=O)c3c(F)cccc3F)s2)CC1` (stereo not given), for which the inhibition turned out to be 43%. For the compound `Nc1nc(NC2CCN(C(=O)c3ccccc3-n3cccc3)CC2)sc1C(=O)c1c(F)cccc1F`, the inhibition turned out to be 50%.

Take `COc1c(C)cc(C(=O)N2CCC(Nc3nc(N)c(C(=O)c4c(F)cccc4F)s3)CC2)cc1C`: the inhibition was determined as 39%. As for `COC(=O)CCC(=O)N1CCC(Nc2nc(N)c(C(=O)c3c(F)cccc3F)s2)CC1`, the inhibition turned out to be 12%. On the same count and under the same terms, then `N#C/C(=C\c1cccc(O)c1)C(=O)N1CCC(Nc2nc(N)c(C(=O)c3c(F)cccc3F)s2)CC1`, with 84%; and `CCOc1cccc(CC(=O)N2CCC(Nc3nc(N)c(C(=O)c4c(F)cccc4F)s3)CC2)c1`, with 77%; and `Nc1nc(NC2CCN(C(=O)/C=C/c3ccc(F)cc3F)CC2)sc1C(=O)c1c(F)cccc1F`, with 28%. As for `Nc1nc(NC2CCN(S(=O)(=O)c3c(F)cccc3F)CC2)sc1C(=O)c1c(F)cccc1F`, the inhibition was -8%. Regarding `Cc1cccc(CC(=O)N2CCC(Nc3nc(N)c(C(=O)c4c(F)cccc4F)s3)CC2)c1`, the inhibition amounted to 55%. For the compound `Cc1cc(C)c(S(=O)(=O)N2CCC(Nc3nc(N)c(C(=O)c4c(F)cccc4F)s3)CC2)c(C)c1`, the inhibition was -14%.

As to `CCC(O)(CC)C(=O)N1CCC(Nc2nc(N)c(C(=O)c3c(F)cccc3F)s2)CC1`, the inhibition came to 17%. Turning to `CCOC(=O)C(=O)N1CCC(Nc2nc(N)c(C(=O)c3c(F)cccc3F)s2)CC1`, the inhibition was -13%. Same read-out and setting: to `CC(=O)OC(C(=O)N1CCC(Nc2nc(N)c(C(=O)c3c(F)cccc3F)s2)CC1)c1ccccc1` (stereo not given) belongs -5%; to `Nc1nc(NC2CCN(C(=O)c3ccccc3C(F)(F)F)CC2)sc1C(=O)c1c(F)cccc1F`, -12%. In the case of `Nc1nc(NC2CCN(C(=O)c3cc(F)cc(F)c3)CC2)sc1C(=O)c1c(F)cccc1F`, the inhibition turned out to be 80%.

Consider `COc1ccc(C2(C(=O)N3CCC(Nc4nc(N)c(C(=O)c5c(F)cccc5F)s4)CC3)CC2)cc1`, for which the inhibition worked out at 37%.

Consider `CCOC(=O)N1CCC(Nc2nc(N)c(C(=O)c3c(F)cccc3F)s2)CC1`, for which the inhibition was -13%. `CCCCC(O)C(=O)N1CCC(Nc2nc(N)c(C(=O)c3c(F)cccc3F)s2)CC1` (stereo not given): the inhibition was 16%. Regarding `Nc1nc(NC2CCN(C(=O)c3cccnc3Sc3ccc(Cl)cc3)CC2)sc1C(=O)c1c(F)cccc1F`, the inhibition was -73%. Still for that read-out and setting: then `CCCC/C=C/C(=O)N1CCC(Nc2nc(N)c(C(=O)c3c(F)cccc3F)s2)CC1`, with 27%; and `Cc1ccc(F)cc1C(=O)N1CCC(Nc2nc(N)c(C(=O)c3c(F)cccc3F)s2)CC1`, with 52%; and `Nc1nc(NC2CCN(C(=O)Cn3cnnn3)CC2)sc1C(=O)c1c(F)cccc1F`, with 87%. Take `CCOC(=O)CC(=O)N1CCC(Nc2nc(N)c(C(=O)c3c(F)cccc3F)s2)CC1`: the inhibition is -13%. As for `C=CCCC(=O)N1CCC(Nc2nc(N)c(C(=O)c3c(F)cccc3F)s2)CC1`, the inhibition stood at 68%. Turning to `Nc1nc(NC2CCN(C(=O)/C=C/c3ccc4c(c3)CCC4)CC2)sc1C(=O)c1c(F)cccc1F`, the inhibition was found to be 48%.
